# Tests used:
# rats [1] = assay: Yohimbine-induced anxiety-like behavior in rat social interaction test; type: in vivo
# Experimental: The male SD rats (weighing 201.8 to 285.6 g; Charles River Japan Inc.)were used in this study. On the day of behavioral evaluation, the animals were acclimatized to the test environment from 4 hours before the start of the experiment. Sixty minutes after oral administration of a vehicle (0.5 w/v % MC solution) or a test compound (prepared in suspension in 0.5 w/v % MC solution to obtain a dosing concentration of 0.5 mL per 100 g of rat body weight), two rats were allowed to meet each other in an acrylic box (50×50×50 cm). The total time of social interaction behaviors (sniffing, following, grooming and the like) during monitoring for 10 minutes immediately after meeting (between-rats interaction time) were measured with a stopwatch. Using the method of Test Example 4, the effect of a compound on the anxiety induced with administration of an anxiogenic substance was examined. Yohimbine (adrenalin α2 receptor antagonist) is known as one of the anxiogenic substance. It is thought that locus coeruleus hyperactivity that accompanies α2 receptor antagonizing action is contributory to the anxiety-inducing action of Yohimbine. Anxiety symptoms that develop with administration of Yohimbine to healthy persons were reported to be similar to panic disorders, in the pathophysiology of which abnormal locus coeruleus activity is considered to be largely involved. […]
# male ICR mice = assay: Marble burying behavior test in mice; type: in vivo; details: 3 mg/kg oral, 1 hour before test; marbles counted after 30 minutes; significant
# Description: This test is known as one of the test systems for anxiolytics (Folia Pharmacologica Japonica, 126, p. 94 (2005)). Marble-burying behavior is a behavior of the mouse to bury marbles in spread planer bedding on which the marbles were placed, and is suppressed, without being accompanied by motor inhibition, by selective serotonin reuptake inhibitors (SSRIs). Since the behavior of the mouse to attempt to cover and bury harmless marbles in planer bedding is apparently similar to compulsions in patients with obsessive-compulsive disorders that are repeated while they recognize them as being unreasonable, and also since SSRIs are effective as therapeutic drugs for obsessive-compulsive disorders, and for other reasons, the marble burying behavior is getting positioned as an animal model of obsessive-compulsive disorder
# The male ICR mice (weighing 27.6 to 42.9 g; Japan SLC, Inc.) were used in this study. […] At 30 minutes later, the number of marbles more than half-buried in the planer was counted. […]
# The effects of the drug are expressed as the actually measured number of buried marbles and the inhibition rate calculated by the following equation.
# male SD rats [2] = assay: Rat social interaction test; type: in vivo; details: 0.3 mg/kg oral
# Description: It is known that these social interactions increase with administration of existing anxiolytics. This test is thought as an animal model of social phobia or generalized anxiety disorders because it is consider that contradictory social environments between two rats cause stress (Eur. J. Pharmacol., 408, p. 41 (2000)).
# (§1) The male SD rats (weighing 201.8 to 285.6 g; Charles River Japan Inc.)were used in this study. On the day of behavioral evaluation, the animals were acclimatized to the test environment from 4 hours before the start of the experiment. Sixty minutes after oral administration of a vehicle (0.5 w/v % MC solution) or a test compound (prepared in suspension in 0.5 w/v % MC solution to obtain a dosing concentration of 0.5 mL per 100 g of rat body weight), two rats were allowed to meet each other in an acrylic box (50×50×50 cm). The total time of social interaction behaviors (sniffing, following, grooming and the like) during monitoring for 10 minutes immediately after meeting (between-rats interaction time) were measured with a stopwatch.
# rats [3] = assay: mCPP-induced anxiety-like behavior in rat social interaction test; type: in vivo
# Experimental: as §1
# Meanwhile, meta-chlorophenylpiperadine hydrochloride (mCPP) is an anxiogenic substance having a 5-HT2 receptor stimulation action. It was reported that mCPP induced anxiety symptoms in healthy subjects and aggravated the symptoms of generalized anxiety disorder in humans. The mCPP-induced anxiety response is an experimental model that well reflects anxiety (for example, generalized anxiety disorder) caused by abnormal signaling especially via 5-HT2 receptors.
# Next, the effect on mCPP-induced anxiety was examined. […]
# male Wistar rats = assay: Vogel conflict test in rats; type: in vivo, rat; details: 0.03 mg/kg oral, 60 minutes before; 5 min session; vehicle 6.1±0.8 times; P=0.003846, Steel-test
# Experimental: This test is to measure drinking counts (number of shocks during drinking) when an electric shock is applied to a water-deprived rat at each time that the rat drinks water. Under this condition, a rat is thought to be placed under a state of conflict between the motivation to drink (positive reinforcing factor) and the aversion to receiving an electric shock (negative reinforcing factor, punishment). When anxiolytics are administered to a rat, anxiety about punishing stimuli is suppressed and behavior in an attempt to take a positive reinforcer is observed. This test is thought to be an animal model of generalized anxiety disorders (Folia Pharmacologica Japonica, 115, p. 5 (2005), Japanese Journal of Clinical Psychopharmacology, 9, p. 2389 (2006)).
# The male Wistar rats (weighing 148.4 to 211.7 g; Japan SLC, Inc.) and an operant experimental apparatus were used in 20 this study. The chamber consisted of a soundproof box, and a test cage (25×30×25 cm), a shock generator, a controller, a licking sensor and PC analysis system placed in the soundproof box. […] Current conduction by licking (drinking) was detected with the licking senor and measured with the PC analysis system via the controller. […] Twenty nozzle licks were counted as one drinking response and drinking frequency (drinking count) was determined (pre-value). […]
# male SD rats [4] = assay: Elevated plus maze test in rat; type: in vivo; details: 0.1 mg/kg oral
# Description: In this test, a conflict arises between rodent's exploratory drive and an innate aversion to bright open new spaces (open arms), accordingly, it has been reported that drugs having anti-anxiety activity increase the time spent in the open arms and the number of open arm entries, while anxiogenic substance decreases these parameters (Japanese Journal of Clinical Psychopharmacology, 9, p. 2389 (2006)). This test is thought to be an animal model of generalized anxiety disorders (Folia Pharmacologica Japonica, 115, p. 5 (2005), Japanese Journal of Clinical Psychopharmacology, 9, p. 2389 (2006)).
# The male SD rats (weighing 133.8 to 260.2 g; Charles River Japan Inc.) were used in this study. An apparatus was used wherein two open arms (50×10 cm) extending on the same line from a 10 cm-square central area and two enclosed arms (50×10 cm) surrounded by a wall of 40 cm height are perpendicularly crossing. Sixty minutes after oral administration of a vehicle (0.5 w/v % MC solution) or a test 20 compound (a suspension in 0.5 w/v % MC solution prepared to obtain a dosing concentration of 0.5 mL per 100 g of rat body weight), each rat was placed in the center of the elevated plus maze with its head facing toward the enclosed arm and immediately observed for its behavior for 5 minutes. The rat behavior on the maze was recorded with a digital video camera positioned on the ceiling of the laboratory. The times spent and number of entries in the open arms, enclosed arms and central platform, and distance travelled were determined using analysis software. The time spent in the open arms, percentage of open arm entries (ratio of the number of entries in the open arms to the total number of entries in the open and enclosed arms) and total distance travelled on the maze during the monitoring period were determined to evaluate the influences of the test compound.
# male SD rats [5] = assay: Conditioned fear stress (CFS) test in rats; type: in vivo, rat; details: 0.3 mg/kg, 60 min before retention trial
# Description: In this test (Folia Pharmacologica Japonica, 113, p. 113 (1999)), the influences of psychological stress resulting from past aversion experience on living organisms can be measured as behavioral suppression (freezing reaction) or autonomic nervous system hyperactivity (increases in respiratory rate and blood pressure).
# The male SD rats (weighing 140.2 to 320.0 g; Charles River Japan Inc.) and a contextual learning test system were used in this study. The experimental apparatus is consisted of a soundproof box, and a test cage (20×20×25 cm), a shock generator, a controller, an external monitor and PC analysis system, which were placed in the soundproof box. The test cage has stainless bars on the floor at 1-cm intervals. A scrambled electric current was generated from the shock generator using 35 a command of the special program . The inside of the soundproof box was equipped with a speaker. A buzzer sound of 65 dB was generated via the controller using a command of the special program. The animal behavior within the test cage was recorded with a CCD camera, which was positioned on the ceiling of the soundproof box. […] The percentage of freezing behavior was determined by (Freezing time/Test time)×100. […] According to the same schedule as that on the previous day, only a buzzer sound was generated six times and the duration of freezing behavior was measured. […]
structure (smiles),measurement,setting,value
"COC(=O)[C@@H]1[C@H]2C[C@H]3c4[nH]c5ccccc5c4CCN3C[C@@H]2CC[C@@H]1O [Yohimbine, reference compound]",between-rats interaction time (Yohimbine alone),"rats [1]; Yohimbine 5 mg/kg oral, 30 minutes before measurement, vehicle 90.6±7.1 seconds, P=0.0010, Aspin-Welch test",57.6 ± 3.4 s
Cc1ccc(C(=O)Nc2nc(-c3ccco3)c(C(=O)C3CCOCC3)s2)cn1 [compound (IC)],% inhibition of mouse marble burying behavior,male ICR mice,73.7%
same,between-rats interaction time,"male SD rats [2]; 60 min before, 10 min monitoring, vehicle 85.2 ±7.6 seconds, P=0.01545, Dunnett test",119.3 ± 9.0 s
same,spontaneous activity,"male SD rats [2]; vehicle 8635.3 ±506.4 counts, P<0.001, Dunnett test",12922.7 ±646.8 counts
same,between-rats interaction time (improvement of reduction by Yohimbine),"rats [1]; 0.03 mg/kg, 30 minutes before Yohimbine (5 mg/kg), Yohimbine alone 57.6±3.4 seconds, P=0.00019, Steel test",90.3 ± 5.0 s
same,between-rats interaction time (improvement of reduction by mCPP),"rats [3]; 0.3 mg/kg, 30 minutes before mCPP (0.5 mg/kg), mCPP alone 32.5±3.6 seconds, P<0.001, Dunnett test",62.4 ± 6.9 s
same,"number of electric shocks received (drinking count, test-punished session)",male Wistar rats,12.7±1.7 times
same,time spent in the open arms,"male SD rats [4]; 60 min before, 5 minutes, vehicle 21.6 ±7.4 seconds, P=0.01687, Steel test",61.6 ± 10.9 s
same,percentage of open arm entries,"male SD rats [4]; vehicle 15.5±3.0%, P=0.04759, Steel test",33.4±6.3%
same,total distance travelled on the maze,"male SD rats [4]; vehicle 2521.97±95.34 cm, not affected",2414.83±102.13 cm
same,percentage of freezing behavior in the post-tone period,"male SD rats [5]; vehicle 59.8±9.6, P=0.01559, Dunnett test",23.4 ± 8.1%
same,percentage of freezing behavior in the with-tone period,"male SD rats [5]; vehicle 90.2±2.6, P=0.02867, Steel test",57.1 ± 9.9%
"Cl.Clc1cccc(N2CCNCC2)c1 [mCPP, meta-chlorophenylpiperadine hydrochloride, reference compound]",between-rats interaction time (mCPP alone),"rats [3]; mCPP 0.5 mg/kg oral, 30 minutes before measurement, vehicle 83.4±5.1 seconds, P<0.001, Student's t-test",32.5 ± 3.6 s

# From patent US20200002327A1, “THERAPEUTIC AGENT FOR ANXIETY DISORDERS” (KYOWA HAKKO KIRIN CO., LTD., priority 2009, published 2020)
